Experimental findings from US20100022559A1, “BISOXIMES AS FUNGICIDES” (BAYER CROPSCIENCE AG, priority 2006, published 2010) are described below.

The structures appear in SMILES notation.

The nature of the first series: logP determination by HPLC on a reversed-phase column (C 18), EEC Directive 79/831 Annex V.A8. The format is physicochemical. The conditions noted are these: method marked [a] in Table 1. The procedure:
The stated logP values were determined in accordance with EEC Directive 79/831 Annex V.A8 by HPLC (high performance liquid chromatography) on a reversed-phase column (C 18). Temperature: 43° C.
On to `CC(=NOCC(C)(C)CON=C(C)c1nc2ccccc2[nH]1)c1nc2ccccc2[nH]1` [Compound 573], for which the logP was 2.10^[a].

As to `CC(=NOCC(C)(C)CON=C(C)c1cccc(-c2ccccc2)n1)c1cccc(-c2ccccc2)n1` [Compound 575], the logP is 7.36^[a].

Consider `CC(=NOCC(C)(C)CON=C(C)c1ccc2c(n1)CCCCC2)c1ccc2c(n1)CCCCC2` [Compound 592], for which the logP was 6.04^[a].

Regarding `CC(=NOCC1(CON=C(C)c2cccc(C)n2)CC(c2ccccc2)=NO1)c1cccc(C)n1` (centres unmarked) [Compound 593], the logP was 3.74^[a].

Staying with this series, now noted: method marked [b] in Table 1.
As for `CC(=NOCC(C)(C)CON=C(CC(C)C)c1cccc(C)n1)c1cccc(C)n1` [Compound 538], the logP is 6.47^[b].

Turning to `CC(=NOC/C=C\CON=C(C)c1ccccn1)c1ccccn1` [Compound 541], the logP is 3.04^[b].

For `COC(CON=C(C)c1cc(C)cc(C)n1)CON=C(C)c1cc(C)cc(C)n1` (centres unmarked) [Compound 552], the logP is 1.56^[b].

With `CC(=NOCC1(CON=C(C)c2cc(C)cc(C)n2)CCCCC1)c1cc(C)cc(C)n1` [Compound 553], the logP was 3.87^[b].

With `CC(=NOCC(CON=C(C)c1cc(C)cc(C)n1)c1ccccc1)c1cc(C)cc(C)n1` (centres unmarked) [Compound 554], the logP was 2.96^[b].

`CCCC(CON=C(C)c1cc(C)cc(C)n1)CON=C(C)c1cc(C)cc(C)n1` (centres unmarked) [Compound 555]: the logP was 3.22^[b].

For the compound `CC(=NOCC1(CON=C(C)c2cc(C)cc(C)n2)CC1)c1cc(C)cc(C)n1` [Compound 556], the logP is 2.11^[b].

Regarding `CC(=NOC(C)CC(C)ON=C(C)c1cc(C)cc(C)n1)c1cc(C)cc(C)n1` (centres unmarked) [Compound 557], the logP is 2.39^[b].

In the case of `CC(=NOCCC(C)ON=C(C)c1cc(C)cc(C)n1)c1cc(C)cc(C)n1` (centres unmarked) [Compound 558], the logP was 2.00^[b].

For `CC(=NOCC(CON=C(C)c1cc(C)cc(C)n1)C(C)(C)C)c1cc(C)cc(C)n1` (centres unmarked) [Compound 559], the logP was 3.60^[b].

Take `CC(=NOCC1(CON=C(C)c2cccc(C)n2)CCCCC1)c1cccc(C)n1` [Compound 561]: the logP was 6.09^[b].

Regarding `CC(=NOCC1(CON=C(C)c2cc(C)cc(C)n2)CCC1)c1cc(C)cc(C)n1` [Compound 562], the logP is 2.90^[b].

With `CC(=NOCC(CON=C(C)c1ccc(C)c(C)n1)Cc1ccccc1)c1ccc(C)c(C)n1` (centres unmarked) [Compound 581], the logP is 5.01^[b].

`CC(=NOCC(CON=C(C)c1cc(C)cc(C)n1)Cc1ccccc1)c1cc(C)cc(C)n1` (centres unmarked) [Compound 582]: the logP is 3.62^[b].

As for `CC(=NOCC(CON=C(C)c1cccc(C)n1)Cc1ccccc1)c1cccc(C)n1` (centres unmarked) [Compound 583], the logP is listed as 5.37^b].

For the compound `CCOC(CON=C(C)c1cccc(C)n1)CON=C(C)c1cccc(C)n1` (centres unmarked) [Compound 586], the logP is listed as 2.87^b].

Turning to `CC(=NOCC1(CON=C(C)c2cccc(C)n2)CCCC1)c1cccc(C)n1` [Compound 587], the logP is reported as 5.49^b].

With `CC(=NOCC1(CON=C(C)c2ccc(C)c(C)n2)CCCC1)c1ccc(C)c(C)n1` [Compound 588], the logP was 4.92^[b].

On to `CC(=NOCC1(CON=C(C)c2cc(C)cc(C)n2)CCCC1)c1cc(C)cc(C)n1` [Compound 589], for which the logP was 3.35^[b].

`CC1=NOC(CO/N=C(\C)c2cc(C)cc(C)n2)(CO/N=C(\C)c2cc(C)cc(C)n2)C1` [Compound 637]: the logP was 1.60^[b].

Take `CCC1=NOC(CON=C(C)c2cc(C)cc(C)n2)(CON=C(C)c2cc(C)cc(C)n2)C1` (centres unmarked) [Compound 639]: the logP was 1.88^[b].

As to `Cc1cccc(C=NOCCCON=Cc2cccc(C)n2)n1` [Compound 669], the logP is 2.54^[b].

For `CCC(CON=C(C)c1cccc(C)n1)CON=C(C)c1cccc(C)n1` (centres unmarked) [Compound 677], the logP is 4.38^[b].

For the compound `CCC(CON=C(C)c1ccc(C)c(C)n1)CON=C(C)c1ccc(C)c(C)n1` (centres unmarked) [Compound 678], the logP is 3.89^[b].

For `CCC(CON=C(C)c1cc(C)cc(C)n1)CON=C(C)c1cc(C)cc(C)n1` (centres unmarked) [Compound 679], the logP is 2.61^[b].

Take `CC(=NOCC(CON=C(C)c1cccc(C)n1)C(C)C)c1cccc(C)n1` (centres unmarked) [Compound 680]: the logP is 5.03^[b].

`CC(=NOCC(CON=C(C)c1ccc(C)c(C)n1)C(C)C)c1ccc(C)c(C)n1` (centres unmarked) [Compound 681]: the logP was 4.57^[b].

Regarding `CC(=NOCC(CON=C(C)c1cc(C)cc(C)n1)C(C)C)c1cc(C)cc(C)n1` (centres unmarked) [Compound 682], the logP is 3.12^[b].

The same series, now with this note: method marked [c] in Table 1.
As for `CCCc1nc(C(C)=NOCC(C)CON=C(C)c2ccc(C)c(CCC)n2)ccc1C` (centres unmarked) [Compound 550], the logP is 7.36^[c].

Take `COC(CON=C(C)c1cc(C)cc(C)n1)CON=C(C)c1cc(C)cc(C)n1` (centres unmarked) [Compound 552]: the logP is 4.91^[c].

For `CC(=NOCC1(CON=C(C)c2cc(C)cc(C)n2)CCCCC1)c1cc(C)cc(C)n1` [Compound 553], the logP was 7.36^[c].

`CC(=NOCC(CON=C(C)c1cc(C)cc(C)n1)c1ccccc1)c1cc(C)cc(C)n1` (centres unmarked) [Compound 554]: the logP was 6.33^[c].

As to `CCCC(CON=C(C)c1cc(C)cc(C)n1)CON=C(C)c1cc(C)cc(C)n1` (centres unmarked) [Compound 555], the logP was 7.15^[c].

As for `CC(=NOCC1(CON=C(C)c2cc(C)cc(C)n2)CC1)c1cc(C)cc(C)n1` [Compound 556], the logP was 5.97^[c].

For `CC(=NOC(C)CC(C)ON=C(C)c1cc(C)cc(C)n1)c1cc(C)cc(C)n1` (centres unmarked) [Compound 557], the logP was 6.63^[c].

For `CC(=NOCCC(C)ON=C(C)c1cc(C)cc(C)n1)c1cc(C)cc(C)n1` (centres unmarked) [Compound 558], the logP was 6.11^[c].

In the case of `CC(=NOCC(CON=C(C)c1cc(C)cc(C)n1)C(C)(C)C)c1cc(C)cc(C)n1` (centres unmarked) [Compound 559], the logP was 7.36^[c].

As to `CC(=NOCC1(CON=C(C)c2cccc(C)n2)CCCCC1)c1cccc(C)n1` [Compound 561], the logP is 7.15^[c].

For `CC(=NOCC1(CON=C(C)c2cc(C)cc(C)n2)CCC1)c1cc(C)cc(C)n1` [Compound 562], the logP is 6.93^[c].

In the case of `CC(=NOCC(CON=C(C)c1ccc(C)c(C)n1)Cc1ccccc1)c1ccc(C)c(C)n1` (centres unmarked) [Compound 581], the logP was 7.05^[c].

For `CC(=NOCC(CON=C(C)c1cc(C)cc(C)n1)Cc1ccccc1)c1cc(C)cc(C)n1` (centres unmarked) [Compound 582], the logP is 6.97^[c].

`CC(=NOCC(CON=C(C)c1cccc(C)n1)Cc1ccccc1)c1cccc(C)n1` (centres unmarked) [Compound 583]: the logP was 6.34^[c].

As for `CCOC(CON=C(C)c1cccc(C)n1)CON=C(C)c1cccc(C)n1` (centres unmarked) [Compound 586], the logP is 4.76^[c].

In the case of `CC(=NOCC1(CON=C(C)c2cccc(C)n2)CCCC1)c1cccc(C)n1` [Compound 587], the logP was 7.33^[c].

Take `CC(=NOCC1(CON=C(C)c2ccc(C)c(C)n2)CCCC1)c1ccc(C)c(C)n1` [Compound 588]: the logP was 7.36^[c].

In the case of `CC(=NOCC1(CON=C(C)c2cc(C)cc(C)n2)CCCC1)c1cc(C)cc(C)n1` [Compound 589], the logP was 7.36^[c].

In the case of `CCC(CON=C(C)c1cccc(C)n1)CON=C(C)c1cccc(C)n1` (centres unmarked) [Compound 677], the logP is 5.97^[c].

`CCC(CON=C(C)c1ccc(C)c(C)n1)CON=C(C)c1ccc(C)c(C)n1` (centres unmarked) [Compound 678]: the logP is 6.79^[c].

As to `CC(=NOCC(CON=C(C)c1cccc(C)n1)C(C)C)c1cccc(C)n1` (centres unmarked) [Compound 680], the logP is 6.40^[c].

As for `CC(=NOCC(CON=C(C)c1ccc(C)c(C)n1)C(C)C)c1ccc(C)c(C)n1` (centres unmarked) [Compound 681], the logP is 7.18^[c].

As for `CC(=NOCC(CON=C(C)c1cc(C)cc(C)n1)C(C)C)c1cc(C)cc(C)n1` (centres unmarked) [Compound 682], the logP was 7.09^[c].

The same series, now with this note: value marked [b].
In the case of `C=C(CON=C(C)c1cccc(C)n1)CON=C(C)c1cccc(CCC)n1` [Compound 477], the logP was 5.42^[b].

Consider `CC(=NOCC(C)(C)CON=C(C)c1cccc(C)n1)c1cccc(Cl)c1` [Compound 483], for which the logP is 6.22^[b].

Regarding `CC(=NOCC(C)(C)CON=C(C)c1ccc(Cl)s1)c1cccc(C)n1` [Compound 486], the logP is 5.84^[b].

Turning to `CC(=NOCC(C)(C)CON=C(C)c1cc(C)cc(C)n1)c1cccc(C)n1` [Compound 487], the logP is 3.33^[b].

Regarding `CC(=NOCC(C)(C)CON=C(C)c1cccc(C(C)C)n1)c1cccc(C)n1` [Compound 491], the logP was 6.87^[b].

Take `COc1cccc(C(C)=NOCC(C)CON=C(C)c2cccc(C)n2)c1` (centres unmarked) [Compound 495]: the logP was 4.80^[b].

In the case of `CC(=NOCC(C)CON=C(C)c1cc(C)cc(C)n1)c1cccc(C)n1` (centres unmarked) [Compound 499], the logP is 2.76^[b].

On to `COc1cc(C)nc(C(C)=NOCC(C)CON=C(C)c2cccc(C)n2)c1` (centres unmarked) [Compound 501], for which the logP was 3.37^[b].

In the case of `CCCc1cccc(C(C)=NOCC(C)CON=C(C)c2cccc(C)n2)n1` (centres unmarked) [Compound 502], the logP was 5.84^[b].

`CC(=NOCC(C)CON=C(C)c1cccc(C(C)C)n1)c1cccc(C)n1` (centres unmarked) [Compound 504]: the logP is on record as 6.29^b].

With `CC(=NOCCCCCCON=C(C)c1nccc(C)n1)c1cccc(C)n1` [Compound 509], the logP is 3.39^[b].

Take `CC(=NOCCC(C)ON=C(C)c1ccc(C)c(C)n1)c1ccc(C)c(C)n1` (centres unmarked) [Compound 519]: the logP is 2.75^[b].

Still in this series, the particulars now being: value marked [c].
Take `CC(=NOCCC(C)ON=C(C)c1ccc(C)c(C)n1)c1ccc(C)c(C)n1` (centres unmarked) [Compound 519]: the logP is 6.27^[c].
